These results are taken from patent publication US20240139113A1, “LIPID NANOPARTICLE WITH TARGET INTEGRIN FUNCTION AND USES THEREOF” (priority 2022, published 2024).

The structures appear in SMILES notation.

The subject of data set [1] is human umbilical vein endothelial cells (HUVEC). Kind of data set: Cell viability of normal cells (HUVEC), 3-day treatment. The class given is cell-based. The note with it: 3 days, FIG. 2A. From the text:
(§1) In this example, the effect of the lipid nanoparticle on the growth of normal cells is investigated.
(§2) Dox represents doxorubicin; Tetrac represents tetraiodothyroacetic acid.

The subject of data set [2] is monkey kidney epithelial cells (Vero). Description: Cell viability of normal cells (Vero), 3-day treatment. The class given is cell-based. The note with it: 3 days, FIG. 2A.
Excerpt: as §1, §2

As for `O=C(O)Cc1cc(I)c(Oc2cc(I)c(O)c(I)c2)c(I)c1` [Tetrac, tetraiodothyroacetic acid], the “cell viability / growth of normal cells” value in data set [1] and in data set [2] was “do not affect the growth of normal cells” throughout.
